Assay results as given in patent US12662491B2 (Redona Therapeutics, Inc., priority 2020, dated 2026).

The compounds below were run against T1, Zcchc11 enzyme (Homo sapiens, UniProt Q5TAX3) (assay: TUTase assay (Zcchc11 assay, Lin28a-dependent polyuridylation of pre-let-7)). Conditions: Lin28a-dependent Zcchc11 (Z11) TUTase activity; read-out: Potency Lin28a-dep Z11 IC50.
T1 construct: made in house; host or cells: HEK293 cells (Zcchc11); E. coli Rosetta II (LIN28A)
T1 sequence (Q5TAX3 212-1420): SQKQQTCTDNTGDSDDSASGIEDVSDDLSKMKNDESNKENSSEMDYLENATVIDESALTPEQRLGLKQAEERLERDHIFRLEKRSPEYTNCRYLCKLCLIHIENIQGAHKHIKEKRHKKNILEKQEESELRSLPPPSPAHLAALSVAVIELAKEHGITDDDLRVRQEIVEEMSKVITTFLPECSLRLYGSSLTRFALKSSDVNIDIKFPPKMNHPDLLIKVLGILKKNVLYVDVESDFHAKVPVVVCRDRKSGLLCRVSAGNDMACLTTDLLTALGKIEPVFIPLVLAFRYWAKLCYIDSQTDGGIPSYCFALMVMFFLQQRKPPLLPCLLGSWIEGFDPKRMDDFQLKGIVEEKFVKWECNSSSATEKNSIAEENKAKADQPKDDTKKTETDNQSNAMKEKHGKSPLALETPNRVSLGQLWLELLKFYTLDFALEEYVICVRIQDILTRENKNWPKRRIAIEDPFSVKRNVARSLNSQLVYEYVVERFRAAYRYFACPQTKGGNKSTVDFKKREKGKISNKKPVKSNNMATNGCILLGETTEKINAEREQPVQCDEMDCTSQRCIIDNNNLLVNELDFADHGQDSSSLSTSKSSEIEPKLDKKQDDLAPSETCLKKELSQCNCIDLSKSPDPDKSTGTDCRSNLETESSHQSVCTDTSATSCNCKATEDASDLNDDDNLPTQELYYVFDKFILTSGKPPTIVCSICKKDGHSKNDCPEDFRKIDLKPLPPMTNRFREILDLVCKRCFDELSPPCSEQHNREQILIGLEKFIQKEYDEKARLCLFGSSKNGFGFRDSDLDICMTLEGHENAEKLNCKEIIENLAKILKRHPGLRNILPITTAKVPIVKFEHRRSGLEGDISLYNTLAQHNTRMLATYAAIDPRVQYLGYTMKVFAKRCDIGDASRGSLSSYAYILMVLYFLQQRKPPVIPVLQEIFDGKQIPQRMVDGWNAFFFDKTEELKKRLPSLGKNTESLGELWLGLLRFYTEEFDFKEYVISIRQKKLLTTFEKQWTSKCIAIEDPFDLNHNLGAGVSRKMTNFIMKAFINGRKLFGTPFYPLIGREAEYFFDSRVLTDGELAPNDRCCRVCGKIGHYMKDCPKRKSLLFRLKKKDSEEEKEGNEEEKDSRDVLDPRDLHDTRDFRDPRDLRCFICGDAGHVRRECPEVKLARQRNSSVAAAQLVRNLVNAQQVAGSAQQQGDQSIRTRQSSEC
Type: biochemical
In short: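 Polyuridylation measured as fluorescein loss when a rhodamine-labelled A20 probe anneals to U-tails added to fluorescein pre-let-7 (2 nM). Reaction: truncated Zcchc11 0.2 nM, E. coli-made LIN28A 10 nM, UTP 5 uM, HEPES pH 7.3, room temperature. Initial rates fitted to four-parameter IC50.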

Row | Compound | IC50 [nM]
1 | O=C(O)c1cn(-c2cnn(C3CNC3)c2)c2cc(N3CCC[C@@H]3COc3ncccc3F)c(Cl)cc2c1=O [Compound 246, 1-[1-(azetidin-3-yl)pyrazol-4-yl]-6-chloro-7-[(2R)-2-[[(3-fluoropyridin-2-yl)oxy]methyl]pyrrolidin-1-yl]-4-oxoquinoline-3-carboxylic acid] | ≤ 1000
2 | Cc1cccnc1OC[C@H]1CCCN1c1cc2c(cc1C#N)c(=O)c(C(=O)O)cn2-c1cnn(C)c1 [Compound 248, 6-cyano-1-(1-methylpyrazol-4-yl)-7-[(2R)-2-[[(3-methylpyridin-2-yl)oxy]methyl]pyrrolidin-1-yl]-4-oxoquinoline-3-carboxylic acid] | ≤ 1000
3 | CN(C)C1CN(c2ccc(-n3cc(C(=O)O)c(=O)c4ccc(N5C(=O)CC[C@@H]5COc5ncccc5Cl)cc43)cn2)C1 [Compound 249, (R)-7-(2-(((3-chloropyridin-2-yl)oxy)methyl)-5-oxopyrrolidin-1-yl)-1-(6-(3-(dimethyl-amino)azetidin-1-yl)pyridin-3-yl)-4-oxo-1,4-dihydro-quinoline-3-carboxylic acid] | 1000 to 10000
4 | CN(C)C1CN(c2ccc(-n3cc(C(=O)O)c(=O)c4cc(C#N)c(N5CCC[C@@H]5COc5ncccc5Cl)nc43)cn2)C1 [Compound 250, 7-[(2R)-2-[[(3-chloropyridin-2-yl)oxy]methyl]pyrrolidin-1-yl]-6-cyano-1-[6-[3-(dimethyl-amino)azetidin-1-yl]pyridin-3-yl]-4-oxo-1,8-naphthyridine-3-carboxylic acid] | ≤ 1000
5 | Cn1cc(Cn2cc(C(=O)O)c(=O)c3cc(Cl)c(N4CCC[C@@H]4COc4ncccc4Cl)cc32)cn1 [Compound 252, 6-chloro-7-[(2R)-2-[[(3-chloropyridin-2-yl)oxy]methyl]pyrrolidin-1-yl]-1-[(1-methyl-pyrazol-4-yl)methyl]-4-oxoquinoline-3-carboxylic acid] | ≤ 1000
6 | CN(C)C1CN(c2cc(Cl)c(-n3cc(C(=O)O)c(=O)c4cc(Cl)c(N5CCC[C@@H]5COc5ncccc5Cl)cc43)cn2)C1 [Compound 253, 6-chloro-1-[4-chloro-6-[3-(dimethyl-amino)azetidin-1-yl]pyridin-3-yl]-7-[(2R)-2-[[(3-chloropyridin-2-yl)oxy]methyl]pyrrolidin-1-yl]-4-oxoquinoline-3-carboxylic acid] | ≤ 1000
7 | CN(C)C1CN(c2ccc(-n3cc(C(=O)O)c(=O)c4cc(Cl)c(N5CC(C)(C)C[C@@H]5COc5ncccc5Cl)cc43)cn2)C1 [Compound 254, 6-chloro-7-[(2R)-2-[[(3-chloropyridin-2-yl)oxy]methyl]-4,4-dimethyl-pyrrolidin-1-yl]-1-[6-[3-(dimethyl-amino)azetidin-1-yl]pyridin-3-yl]-4-oxoquinoline-3-carboxylic acid] | ≤ 1000
8 | CN(C)C1CN(c2ccc(-n3cc(C(=O)O)c(=O)c4cc(Cl)c(N5CCC[C@@H]5COc5ncc6nc[nH]c6c5Cl)cc43)cn2)C1 [Compound 255, 6-chloro-7-[(2R)-2-[({7-chloro-1H-imidazo [4,5-c]pyridin-6-yl}oxy)methyl]pyrrolidin-1-yl]-1-{6-[3-(dimethyl-amino)azetidin-1-yl]pyridin-3-yl}-4-oxoquinoline-3-carboxylic acid] | ≤ 1000

The remaining lines, values ahead:

Row | IC50 [nM] | Compound
9 | ≤ 1000 | CN(C)C1CN(c2ccc(-n3cc(C(=O)O)c(=O)c4cc(Cl)c(N5CCC[C@@H]5COc5nc6ccn(C)c6cc5Cl)cc43)cn2)C1 [Compound 256, 6-chloro-7-[(2R)-2-[([6-chloro-1-methyl-pyrrolo [3,2-b]pyridin-5-yl]oxy)methyl]pyrrolidin-1-yl]-1-[6-[3-(dimethyl-amino)azetidin-1-yl]pyridin-3-yl]-4-oxoquinoline-3-carboxylic acid]
10 | ≤ 1000 | COc1ccc(Cl)c(OCC2N(c3cc4c(cc3Cl)c(=O)c(C(=O)O)cn4-c3ccc(N4CC(N(C)C)C4)nc3)CCC2(C)C)n1 (stereo not drawn) [Compound 257, 6-chloro-7-(2-{[(3-chloro-6-methoxy-pyridin-2-yl)oxy]methyl}-3,3-dimethyl-pyrrolidin-1-yl)-1-{6-[3-(dimethyl-amino)azetidin-1 yl]pyridin-3-yl}-4-oxoquinoline-3-carboxylic acid]
11 | 1000 to 10000 | COc1ccc(Cl)c(OCC23CC(CN2c2cc4c(cc2Cl)c(=O)c(C(=O)O)cn4-c2ccc(N4CC(N(C)C)C4)nc2)C3)n1 [Compound 258, 6-chloro-7-(1-(((3-chloro-6-methoxy-pyridin-2-yl)oxy)methyl)-2-azabicyclo [2.1.1]hexan-2-yl)-1-(6-(3-(dimethyl-amino)azetidin-1-yl)pyridin-3-yl)-4-oxo-1,4-dihydro-quinoline-3-carboxylic acid]
12 | ≤ 1000 | CN(C)C1CN(c2ccc(-n3cc(C(=O)O)c(=O)c4cc(Cl)c(N5CCC(C)(C)C5COc5ncccc5Cl)cc43)cn2)C1 (stereo not drawn) [Compound 259, 6-chloro-7-(2-(((3-chloropyridin-2-yl)oxy)methyl)-3,3-dimethyl-pyrrolidin-1-yl)-1-(6-(3-(dimethyl-amino)azetidin-1-yl)pyridin-3-yl)-4-oxo-1,4-dihydro-quinoline-3-carboxylic acid]
13 | 1000 to 10000 | CN(C)C1CN(c2ccc(-n3cc(C(=O)O)c(=O)c4cc(C#N)c(N5C(COc6ncccc6F)CCC5(C)C)cc43)cn2)C1 (stereo not drawn) [Compound 264, 6-cyano-1-(6-(3-(dimethyl-amino)azetidin-1-yl)pyridin-3-yl)-7-(5-(((3-fluoropyridin-2-yl)oxy)methyl)-2,2-dimethyl-pyrrolidin-1-yl)-4-oxo-1,4-dihydro-quinoline-3-carboxylic acid]
14 | ≤ 1000 | COc1ccnc(OC[C@H]2C[C@H]3C[C@H]3N2c2cc3c(cc2F)c(=O)c(C(=O)O)cn3-c2ccc(N(C)C)nc2)c1Cl [Compound 265, 7-((1R,3R,5R)-3-(((3-chloro-4-methoxy-pyridin-2-yl)oxy)methyl)-2-azabicyclo [3.1.0]hexan-2-yl)-1-(6-(dimethyl-amino)pyridin-3-yl)-6-fluoro-4-oxo-1,4-dihydro-quinoline-3-carboxylic acid]
15 | ≤ 1000 | COc1ccc(F)c(OC[C@H]2C[C@H]3C[C@H]3N2c2cc3c(cc2Cl)c(=O)c(C(=O)O)cn3-c2ccc(N(C)C)nc2)n1 [Compound 266, 6-chloro-1-(6-(dimethyl-amino)pyridin-3-yl)-7-((1R,3R,5R)-3-(((3-fluoro-6-methoxy-pyridin-2-yl)oxy)methyl)-2-azabicyclo [3.1.0]hexan-2-yl)-4-oxo-1,4-dihydro-quinoline-3-carboxylic acid]
16 | ≤ 1000 | COc1ccnc(OC[C@H]2C[C@H]3C[C@H]3N2c2cc3c(cc2Cl)c(=O)c(C(=O)O)cn3-c2ccc(N(C)C)nc2)c1Cl [Compound 267, 6-chloro-7-((1R,3R,5R)-3-(((3-chloro-4-methoxy-pyridin-2-yl)oxy)methyl)-2-azabicyclo [3.1.0]hexan-2-yl)-1-(6-(dimethyl-amino)pyridin-3-yl)-4-oxo-1,4-dihydro-quinoline-3-carboxylic acid]
17 | ≤ 1000 | COc1ccc(F)c(OC[C@H]2C[C@H]3C[C@H]3N2c2cc3c(cc2F)c(=O)c(C(=O)O)cn3-c2ccc(N(C)C)nc2)n1 [Compound 268, 1-(6-(dimethyl-amino)pyridin-3-yl)-6-fluoro-7-((1R,3R,5R)-3-(((3-fluoro-6-methoxy-pyridin-2-yl)oxy)methyl)-2-azabicyclo [3.1.0]hexan-2-yl)-4-oxo-1,4-dihydro-quinoline-3-carboxylic acid]
18 | ≤ 1000 | CN(C)C1CN(c2ccc(-n3cc(C(=O)O)c(=O)c4cc(Cl)c(N5[C@@H](COc6nc(OC7CC7)ccc6Cl)C[C@H]6C[C@H]65)cc43)cn2)C1 [Compound 270, 6-chloro-7-((1R,3R,5R)-3-(((3-chloro-6-cycloprop-oxypyridin-2-yl)oxy)methyl)-2-azabicyclo [3.1.0]hexan-2-yl)-1-(6-(3-(dimethyl-amino)azetidin-1-yl)pyridin-3-yl)-4-oxo-1,4-dihydro-quinoline-3-carboxylic acid]
